{"source": "patent US9040481B2", "about": "“Methods for treating steatotic disease” (The General Hospital Corporation, priority 2010, dated 2015)", "key": {"[1]": {"system": "hepatocytes isolated from ob/ob mice", "type": "cell-based, mouse", "conditions": "for specificity of intracellular transport: distribution versus pattern of mitotracker: Ob/Ob hepatocytes, 18 hours, 1 microM FAM peptide, 1 microM Mitotracker, 25 mM glucose", "description": "GLP-1(28-36)amide (FIAWLVKGRamide (SEQ ID NO:1) and the GLP-1(28-37) Arg-34 glycine extended (FIAWLVRGRG (SEQ ID NO:4)) peptides were prepared by solid phase synthesis and purified by sequential HPLC to >98% single component homogeneity. Verification of the peptides was done by both amino acid composition analysis and by mass spectroscopy. Fluorescent-labeled GLP-1(28-36)amide was prepared with the green fluorescence compound, 5-carboxyfluorescein (5-FAM, fluorescein amidite) and added to hepatocytes isolated from the liver of an ob/ob mouse along with Mitotracker, a specific red fluorochrome mitochondrial marker from Molecular Probes (AnaSpec, Fremont Calif.). The mitotracker compound used requires oxidation to develop fluorescence emission and fluoresces only if cells are viable and actively respiring. The oxidized red fluorochrome stains mitochondria of live and poorly respiring cells (RedCMXRos #7512) and the reduced red fluorochrome stains only actively respiring cells (Red CM-H2XRos #7513).\nMitochondrial localization was evaluated as follows, Hepatocytes were isolated from ob/ob mice and diet-induced obese (DIO) mice and plated overnight on 4 well glass slides (NUNC, Inc., IL) in maintenance medium (12), Next day cells were treated with 10 microM PAM-labeled GLP-1 (28-36)amide peptide (FAM-FIAWLVKGRamide (SEQ ID NO:1)) and 50 nM MitoTracker Red CM-H2Ros for 5 minutes in no dye, no PBS, 5 mM Glucose DMEM medium. Cells were washed with the same medium and images were taken 15 minutes later using Nikon Diaphot 300 inverted microscope SPOT RT camera and SPOT 3.3.1 software (Diagnostic Instruments, Inc., MI).\nWhether intracellular transport of FAM-GLP-1(28-36)amide is specific for […] was evaluated in hepatocytes isolated from Ob/Ob mice and treated for 18 hours with 1 microM Mitotracker Red CM-H2XRos and 1 microM of TAM labeled GLP-1 (28-36) peptide or irrelevant peptide controls: synapsin I-derived petide (FAM-LRRRISDANFamide (SEQ NO:13)), AnaSpec Cat #61756; IP3R-derived peptide (FAM-GRRESLTSFGamide (SEQ ID NO:14)), AnaSpec cat. #61731; or angiotensin I peptide (FAM-DRVYIHPFHL (SEQ ID NO:15)), AnaSpec cat. #61185, in 25 mM glucose maintenance medium. Irrelevant peptides were obtained from AnaSpec, Fremont, Calif. Celts were washed with 25 mM glucose Krebs-Ringer buffer. Images were taken using Nikon Diaphot 300 inverted microscope SPOT RT camera and SPOT 3.3.1 software (Diagnostic Instruments, Inc., MI)."}, "[2]": {"conditions": "mouse, in vivo"}, "[3]": {"conditions": "mouse, in vivo", "remark": "listed apart in the source"}, "[4]": {"system": "isolated mouse hepatocytes"}}, "note": "Where no end group is shown, it is not given here. FAM = 5-carboxyfluorescein (5-FAM), fluorescent label attached at the amino terminus", "data": [{"substance": "FAM-LRRRISDANFamide [synapsin I-derived petide]", "values": [{"measurement": "specificity of intracellular transport: distribution versus pattern of mitotracker", "setting": "[1]", "result": "do not distribute in hepatocytes with the pattern of distribution of mitotracker"}]}, {"substance": "FAM-DRVYIHPFHL ({FAM}-DRVYIHPFHL) [angiotensin I peptide, irrelevant peptide control, AnaSpec cat. #61185]", "values": [{"measurement": "specificity of intracellular transport: distribution versus pattern of mitotracker", "setting": "[1]", "result": "do not distribute in hepatocytes with the pattern of distribution of mitotracker"}]}, {"substance": "FIAWLVKGR-NH2 [GLP-1(28-36)amide, FIAWLVKGRamide]", "values": [{"measurement": "MCR of the peptide", "setting": "[2]", "result": "40 to 50", "unit": "mL/min"}, {"measurement": "mechanism of transport into hepatocytes", "setting": "GLP-1 receptor", "result": "occurs by GLP-1 receptor-independent mechanisms"}, {"measurement": "activities of the mice", "setting": "[3]", "result": "no observable change in the activities"}, {"measurement": "time to enter stressed hepatocytes", "setting": "[1]", "result": "≤ 15", "unit": "min"}]}, {"substance": "FAM-GLP-1: fluorescence-labeled GLP-1", "values": [{"measurement": "binding to the surface of isolated mouse hepatocytes", "setting": "[4]", "result": "no binding"}]}, {"substance": "FAM-GRRESLTSFGamide ({FAM}-GRRESLTSFG-NH2) [IP3R-derived peptide, irrelevant peptide control, AnaSpec cat. #61731]", "values": [{"measurement": "specificity of intracellular transport: distribution versus pattern of mitotracker", "setting": "[1]", "result": "do not distribute in hepatocytes with the pattern of distribution of mitotracker"}]}, {"substance": "FAM-glucagon: FAM-labeled control hormone known to have receptors on hepatocytes", "values": [{"measurement": "binding to the surface of isolated mouse hepatocytes", "setting": "[4]", "result": "readily binds to the surface of hepatocytes"}]}, {"substance": "FAM-FIAWLVKGRamide ({FAM}-FIAWLVKGR-NH2; UniProt P01275 119-127, looked up, fragment) [FAM-GLP-1(28-36)amide, GLP-1(28-36)amide labeled at the amino-terminus with 5-carboxyfluorescein (FAM)]", "values": [{"measurement": "specificity of intracellular transport: distribution versus pattern of mitotracker", "setting": "[1]", "result": "appears to be specific for GLP-1(28-36)amide"}]}]}
